Measurements taken from article PMC11477717, “Synthesis of Carborane–Thiazole Conjugates as Tyrosinase and 11β-Hydroxysteroid Dehydrogenase Inhibitors: Antiproliferative Activity and Molecular Docking Studies” (Molecules, 2024).
Read-outs that look alike come from different tables or passages of the source.

Key:
[1] = test system: A172 (human brain glioblastoma); test: MTT antiproliferative assay, A172; format: cell-based; details: for IC50: MTT, 72 h, A172 cells, read-out: IC50 ± SD A172; for SI HUVEC/A172: selectivity index = IC50 normal cell line / IC50 cancer cell line
Protocol: (§1) All cell lines were obtained from ATCC, and all chemicals were purchased from Sigma-Aldrich, St. Louis, MO, USA. […] All media were supplemented with antibiotic and antimycotic solutions, according to the manufacturers’ instructions. MTT cytotoxicity assessments were performed as described previously. […] The cells counted using an automated cell counter (Countess® II FL, Invitrogen by Thermo Fisher Scientific Inc., Waltham, MA, USA) were plated in 96-well plates (Nunc Edge 2F, Thermo Fisher Scientific Inc.) at a density of 0.1 × 10^4 per well. After an additional 72 h, cells underwent an MTT cytotoxicity assay (see below). The IC50 values were calculated using ED50plus v 1.0 freeware software (Instituto Nacional de Enfermedades Respiratorias, Mexico City, Mexico). Each cell line was tested in three independent replicates.
(§2) After the incubation time was complete, the medium was removed and crystals of formazan were solubilized in pure isopropanol. The absorbance readout was conducted immediately using a plate reader, Multiskan Spectrum, at 570 nm (Thermo Fisher Scientific Inc., Waltham, MA, USA). The background optical density was measured in the wells filled with the culture medium, without any cells.

B16F10 (murine melanoma) = test: MTT antiproliferative assay, B16F10; format: cell-based; details: for IC50: MTT, 72 h, B16F10 cells, read-out: IC50 ± SD B16F10; for SI HUVEC/ B16F10: selectivity index = IC50 normal cell line / IC50 cancer cell line
Protocol: as §1, §2

[2] = test system: MDA-MB-231 (human breast adenocarcinoma); test: MTT antiproliferative assay, MDA-MB-231; format: cell-based; details: for IC50: MTT, 72 h, MDA-MB-231 cells, read-out: IC50 ± SD MDA-MB-231; for SI HUVEC/ MDA-MB-231: selectivity index = IC50 normal cell line / IC50 cancer cell line
Protocol: as §1, §2

[3] = test system: HUVEC (human umbilical vein endothelial cells); test: MTT antiproliferative assay, HUVEC healthy control; format: cell-based; details: 72 h, HUVEC normal cells, read-out: IC50 ± SD HUVEC
Protocol: All cell lines were obtained from ATCC, and all chemicals were purchased from Sigma-Aldrich, St. Louis, MO, USA. Briefly, cells were cultivated in a controlled atmosphere using DMEM medium with fetal bovine serum (FBS) at a final concentration of 10% (A-172), an L15 medium with 15% FBS, cultivated without CO2 (MDA-MB-231), F12K with a heparin final concentration of 0.1 mg/mL, endothelial cell growth supplement with a final concentration of 0.03 mg/mL (HUVEC), and RPMI with 5% FBS. All media were supplemented with antibiotic and antimycotic solutions, according to the manufacturers’ instructions. MTT cytotoxicity assessments were performed as described previously. Briefly, cell lines A172, B16F10, MDA-MB-231, and HUVEC were seeded 24 h prior to the addition of the tested compounds. The cells counted using an automated cell counter (Countess® II FL, Invitrogen by Thermo Fisher Scientific Inc., Waltham, MA, USA) were plated in 96-well plates (Nunc Edge 2F, Thermo Fisher Scientific Inc.) at a density of 0.1 × 10^4 per well. After an additional 72 h, cells underwent an MTT cytotoxicity assay (see below). The IC50 values were calculated using ED50plus v 1.0 freeware software (Instituto Nacional de Enfermedades Respiratorias, Mexico City, Mexico). Each cell line was tested in three independent replicates.
Twenty microliters of an MTT solution (MTT: 3-(4,5-dimethylthiazol-2-yl)-2,5-diphenyl tetrazolium bromide, stock solution: 5 mg/mL) was added to each cell line for 2 h (A172, B16F10, MDA-MB-231, and HUVEC). After the incubation time was complete, the medium was removed and crystals of formazan were solubilized in pure isopropanol. The absorbance readout was conducted immediately using a plate reader, Multiskan Spectrum, at 570 nm (Thermo Fisher Scientific Inc., Waltham, MA, USA). The background optical density was measured in the wells filled with the culture medium, without any cells.

mushroom tyrosinase [4] = target: T1, mushroom tyrosinase (Agaricus bisporus, UniProt C7FF04); test: Mushroom tyrosinase inhibition assay (L-DOPA, dopachrome 475 nm); format: biochemical
T1 construct: purchased Sigma-Aldrich
T1 sequence (C7FF04 1-392 limits assumed): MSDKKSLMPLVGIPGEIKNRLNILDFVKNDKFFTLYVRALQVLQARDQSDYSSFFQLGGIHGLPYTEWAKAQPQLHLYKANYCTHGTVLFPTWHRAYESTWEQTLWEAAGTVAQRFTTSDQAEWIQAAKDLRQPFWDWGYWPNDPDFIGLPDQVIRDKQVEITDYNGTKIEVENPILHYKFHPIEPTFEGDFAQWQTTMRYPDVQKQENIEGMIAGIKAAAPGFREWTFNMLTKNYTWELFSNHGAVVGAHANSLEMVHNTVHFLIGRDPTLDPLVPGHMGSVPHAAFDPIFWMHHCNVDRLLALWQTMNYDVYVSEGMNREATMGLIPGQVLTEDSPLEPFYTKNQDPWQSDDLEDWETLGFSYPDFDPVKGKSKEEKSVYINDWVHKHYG
Protocol: The mushroom tyrosinase (Sigma-Aldrich) inhibition was performed following previously reported methods. […] The inhibitor solutions were prepared in DMSO with an initial concentration of 1 mM. Different aliquots were added to the solution containing the buffer, L-DOPA, and EDTA, with the enzyme being added last. […] Ascorbic acid was used as a reference inhibitor with an initial concentration of 1 mM. The IC50 values were calculated from the equation generated via exponential fit of the experimental data.

mushroom tyrosinase [5] = target: T1, mushroom tyrosinase; test: Kinetic analysis of the inhibition of tyrosinase (Lineweaver-Burk); format: biochemical; details: compound at 0.05 mM; for Mechanism of Inhibition: Lineweaver-Burk plots; for Vmax: L-DOPA 100-250 µM
Protocol: A series of experiments were performed to determine the inhibition kinetics of compounds by following the already reported method. The inhibitor concentrations for compounds were 50 and 100 µM. The substrate L-DOPA concentration was between 100 and 250 µM in all kinetic studies. Maximal initial velocity was determined from the initial linear portion of absorbance up to ten minutes after the addition of the enzyme. The inhibition type of the enzyme, Michaelis constant (KM), and maximal velocity (Vmax) were determined by Lineweaver–Burk plots of the inverse of velocities (1/V) versus the inverse of substrate concentration 1/[L-DOPA] mM^−1.

11β-HSD1 = target: T2, 11β-HSD1 (Homo sapiens, UniProt P28845); test: Inhibition of 11β-HSD1 assay (cortisone to cortisol, microsomes, cortisol ELISA); format: biochemical; details: for % of 11β-HSD1 Inhibition 10 μM: inhibitor 10 µM, 150 min, 37 °C
T2 construct: tissue XenoTech Lot No. 1410013; host or cells: pooled human liver microsomes
T2 sequence (P28845 whole entry): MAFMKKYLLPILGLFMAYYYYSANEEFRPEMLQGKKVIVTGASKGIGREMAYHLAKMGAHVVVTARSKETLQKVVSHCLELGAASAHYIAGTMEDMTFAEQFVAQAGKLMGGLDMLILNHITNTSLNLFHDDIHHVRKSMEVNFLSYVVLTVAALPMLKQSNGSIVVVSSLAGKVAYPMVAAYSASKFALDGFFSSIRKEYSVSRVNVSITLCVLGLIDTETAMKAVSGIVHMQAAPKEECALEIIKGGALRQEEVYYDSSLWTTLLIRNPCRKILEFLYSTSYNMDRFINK
Protocol: L160706125, was obtained from Cloud-Clone Corp. PBS, Lot No. H161008, was obtained from Pan Biotech. […] L191113457, was obtained from Cloud-Clone Corp. […] The microplates were incubated on an orbital shaker for 150 min at 37 °C. […] The quantity of cortisol formed from cortisone was determined using a cortisol ELISA kit, […].

11β-HSD2 = target: T3, 11β-HSD2 (Homo sapiens, UniProt P80365); test: Inhibition of 11β-HSD2 assay (cortisol to cortisone, microsomes, cortisol ELISA); format: biochemical; details: inhibitor 10 µM, 150 min, 37 °C
T3 construct: Human kidney microsomes, mixed gender, 0.5 mL, 10 mg/mL, Lot No. 1710160, were obtained from XenoTech; tissue XenoTech Lot No. 1710160; host or cells: human kidney microsomes
T3 sequence (P80365 1-405): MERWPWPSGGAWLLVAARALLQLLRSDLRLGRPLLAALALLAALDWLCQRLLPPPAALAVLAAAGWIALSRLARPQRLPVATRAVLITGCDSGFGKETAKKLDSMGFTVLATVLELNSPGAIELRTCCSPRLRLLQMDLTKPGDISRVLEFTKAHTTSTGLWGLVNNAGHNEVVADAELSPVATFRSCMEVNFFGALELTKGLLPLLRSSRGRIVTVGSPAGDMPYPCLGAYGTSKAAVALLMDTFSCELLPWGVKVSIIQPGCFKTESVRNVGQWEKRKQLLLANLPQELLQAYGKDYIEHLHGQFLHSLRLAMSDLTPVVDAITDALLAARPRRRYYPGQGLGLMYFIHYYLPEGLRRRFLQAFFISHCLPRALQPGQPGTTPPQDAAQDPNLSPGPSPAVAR
Protocol: The Enzyme-Linked Immunosorbent Assay (ELISA) Kit for 11-Beta-Hydroxysteroid Dehydrogenase Type 1, Lot No. L160706125, was obtained from Cloud-Clone Corp. PBS, Lot No. H161008, was obtained from Pan Biotech. […] The Enzyme-Linked Immunosorbent Assay (ELISA) Kit for 11-Beta-Hydroxysteroid Dehydrogenase Type 2, Lot No. L191113457, was obtained from Cloud-Clone Corp.
The oxidation reaction of cortisol to cortisone was carried out on 96-well microtiter plates in the presence of the enzyme 11β-HSD2 in a total volume of 100 µL. To this end, 60 µL of phosphate buffer (pH 7.4), 10 µL of a microsomes(0.12 µg/mL […]) solution in PBS (final quantity 2.5 µg), 20 µL of substrate mixture cortisol/NAD (final concentration 200 nM/2 mM), and 10 µL of the appropriate inhibitor solution (solvent DMSO/water 1/99, final concentration 10 µM) were placed in each well. The microplates were incubated on an orbital shaker for 150 min at 37 °C. […] The quantity of unreacted cortisol was determined using a cortisol ELISA kit DiaMetra.

[6] = L-DOPA 0.17 mM, pH 6.8, room temperature, read-out: IC50 ± SD mushroom tyrosinase
[7] = 5 inhibitor concentrations, three independent determinations, read-out: IC50 ± SD 11β-HSD1

Substance	IC50 [1] [µM]	SI HUVEC/A172 [1]	IC50 (B16F10 (murine melanoma)) [µM]	SI HUVEC/ B16F10 (B16F10 (murine melanoma))	IC50 [2] [µM]	SI HUVEC/ MDA-MB-231 [2]	IC50 [3] [µM]	IC50 (mushroom tyrosinase [4]; [6]) [mM]	Mechanism of Inhibition (mushroom tyrosinase [5])	Vmax (mushroom tyrosinase [5]) [mM/min]	IC50 (11β-HSD1; [7]) [µM]	% of 11β-HSD1 Inhibition 10 μM (11β-HSD1) [%]	IC50 (11β-HSD1; values in SAR summary, unit inferred, read-out: IC50 11β-HSD1 (unit inferred)) [µM]	% of 11β-HSD2 Inhibition 10 μM (11β-HSD2) [%]	IC50 (mushroom tyrosinase [4]; rounded values in SAR summary, unit mM, read-out: IC50 tyrosinase inhibition) [mM]
2-(2-(1,2-Dicarba-closo-Dodecaboranylmethylene)Hydrazinyl)-4-(4-Fluorphenyl)Thiazole [4c]	7.1 ± 1.9	1.06	5.57 ± 0.39	1.35	6.02 ± 0.08	1.25	7.51 ± 0.64	0.143 ± 0.00938	Activator	0.0810	8.1 ± 2	55.74	7.9 to 8.1	21.70	–
2-(2-(1,2-Dicarba-closo-Dodecaboranylmethylene)Hydrazinyl)-4-(4-Methoxyphenyl)Thiazole [4f]	> 10	–	5.81 ± 0.82	>1.72	7.32 ± 1.26	>1.37	> 10	0.0494 ± 0.00801	tyrosinase activator	0.1472	9.35 ± 1.85	55.54	–	29.25	–
2-(2-(1,2-Dicarba-closo-Dodecaboranylmethylene)Hydrazinyl)-4-(4-Nitrophenyl)Thiazole [4g]	6.07 ± 1.06	>1.65	5.11	>1.96	6.96 ± 0.74	>1.44	> 10	0.105 ± 0.00908	Uncompetitive	0.0521	7.05 ± 0.25	73.51	–	32.55	–
2-(2-(1,2-Dicarba-closo-Dodecaboranylmethylene)Hydrazinyl)-4-p-Tolylthiazole [4d]	7.88 ± 0.98	1.06	> 10	–	6.85 ± 0.86	1.21	8.32 ± 0.09	0.121 ± 0.0219	Mixed	0.3820	9.05 ± 0.25	55.78	–	27.83	0.121
4-(4-Bromophenyl)-2-(2-(1,2-Dicarba-closo-Dodecaboranylmethylene)Hydrazinyl)Thiazole [4b]	6.15 ± 0.26	1.21	5.37 ± 0.11	1.39	6.56 ± 0.12	1.14	7.46 ± 0.13	0.145 ± 0.0144	Activator	0.0912	6.9 ± 1.2	64.44	–	27.36	–
4-(4-Chlorophenyl)-2-(2-(1,2-Dicarba-closo-Dodecaboranylmethylene)Hydrazinyl)Thiazole [4a]	5.77 ± 0.96	1.19	5.03 ± 0.69	1.37	6.54 ± 0.52	1.05	6.87 ± 0.33	0.13 ± 0.0209	Mixed	0.1656	7.03 ± 0.53	60.07	–	25.47	–
